Assays:
[1] = Chemical stability / cis-trans isomerization in solution (LC-MS); assay type: physicochemical; conditions: for % of isomerization at the beginning of incubation: biotransformation incubation samples, start of incubation
Method: Additionally, chemical stability (negative control) in biotransformation experiment conditions was performed (phosphate buffer, 37°C, 2 h) to evaluate possible instability, unrelated to the activity of microsomes (including putative isomerization).
(§1) LC-MS analysis was performed on an Agilent 1260 system coupled to a SingleQuad 6120 mass spectrometer (Agilent Technologies, Santa Clara, CA, USA). The amount of remaining parent compound was determined as a percentage of a peak area of a trans isomer at the start of the incubation.
(§2) A Poroshell C18 EC120 column (3.0×100 mm, 2.7 µm, Agilent Technologies, Santa Clara, CA, USA) was used in reversed-phase mode with gradient elution starting with 5% of phase A (0.1% formic acid in water) and 95% of phase B (0.1% formic acid in acetonitrile). […] The total analysis time was 42 min at 25°C, the flow rate was 0.25 mL/min and the injection volume was 20 µL. The mass spectrometer was equipped with an electrospray ionization source and the ionization mode was positive. The mass analyzer was set individually to each derivative to detect pseudomolecular ions [M+H^+]. The mass spectrometry detector parameters of the ESI source were as follows: nebulizer pressure 40 psi (N2), drying gas […] (N2), drying gas temperature 300°C, capillary voltage +3 kV.

[2] = In vitro metabolic stability in human liver microsomes (LC-MS); assay type: in vitro ADME; conditions: for % of compound remaining after 120 min incubation: HLM 0.53 mg/mL, 1 mM NADPH, compound 10 µM, phosphate buffer pH 7.4, 37°C, percentage of peak area of trans isomer at start of incubation
Method: Stock solutions of the studied compounds were made at a concentration of 1 mM in DMSO:MeOH mixture (10∶90 v/v) to prevent their precipitation. For biotransformation incubations, the solution of compounds was diluted to 10 µM with the presence of 1 mM of NADPH (Sigma-Aldrich, St. Louis, MO, USA) in a potassium phosphate buffer (0.1 M, pH 7.4). Incubation was carried out in thermoblock (Labnet International, Edison, NJ, USA) at 37°C and started with the addition of pooled human liver microsomes with a final concentration of 0.53 mg/mL (Sigma-Aldrich, St. Louis, MO, USA). Directly after HLM was added and at 120 min of incubation the reaction was ended by the addition of an equal volume of ice-cold methanol with 0.1% (v/v) of formic acid. The samples were immediately centrifuged (10 min at 11700 g) and the resulting supernatant was directly analyzed or kept at −80°C until LC-MS or LC-QTOF-MS analysis.
as §1, §2

[3] = RP-LC determination of chromatographic lipophilicity log kw (DryLab); assay type: physicochemical; conditions: Poroshell EC18 column, 30°C, acetonitrile 5-100% gradients of 30 and 60 min, calculated with DryLab
Method: (2) In order to obtain input lipophilicity data, reversed-phase liquid chromatography (RP-LC) log kw determination experiments were performed using the Agilent 1260 apparatus (Agilent Technologies, Santa Clara, CA, USA) equipped with UV and single quadrupole mass detectors, and an autosampler and column thermostat. A Poroshell EC18 150×3 mm column with a particle size of 2.7 µm was applied. Chromatographic measurements were made at 30°C with an eluent flow rate of 0.25 mL/min. Two chromatographic runs were conducted for each compound with different linear gradient times (30 and 60 min), and with an acetonitrile composition in the mobile phase increasing from 5% to 100%. The obtained retention times were further used to calculate log kw values applying the DryLab 2000 Plus software (LC Resources, Walnut Creek, CA, USA). DryLab estimated the log kw value according to the linear equation: log k = logkw+Sφ (k – retention factor, S – slope, φ – volume fraction of the organic modifier) The elution program, as well as the column, mobile phase and instrument properties were taken into account to determine the coefficients in the abovementioned equation. Two analytical runs were required to fit the data, and peak assignment was done manually to ensure the correct identification.

Compound | % of isomerization at the beginning of incubation [1] [%] | % of compound remaining after 120 min incubation [2] [%] | logkw [3] | biotransformation reactions observed ([2]; HLM with NADPH, LC-MS/MS) | cis-trans isomerization in the studied conditions ([1]; water solution / incubation conditions)
Cc1cc(S(N)(=O)=O)c(S/C(=N/Nc2ccc([N+](=O)[O-])cc2)C(C)(C)C)cc1Cl [Compound 6] | 3.50 | 83.88 |  |  | 
CCC/C(=N\Nc1ccc([N+](=O)[O-])cc1)Sc1cc(Cl)c(C)cc1S(N)(=O)=O [Compound 2] | 6.52 | 75.13 |  |  | 
CC/C(=N/Nc1ccc([N+](=O)[O-])cc1)Sc1cc(Cl)c(C)cc1S(N)(=O)=O [1-cis] |  |  | 3.52 |  | 
Cc1ccc(/C(=N\Nc2ccc([N+](=O)[O-])cc2)Sc2cc(Cl)c(C)cc2S(N)(=O)=O)cc1 [Compound 12] | 5.41 | 95.11 |  |  | 
Cc1cc(S(N)(=O)=O)c(S/C(CCc2ccccc2)=N/Nc2ccc([N+](=O)[O-])cc2)cc1Cl [Compound 8] | 5.25 | 58.23 |  |  | 
CCCCC/C(=N\Nc1ccc([N+](=O)[O-])cc1)Sc1cc(Cl)c(C)cc1S(N)(=O)=O [Compound 7] | 5.53 | 60.90 |  |  | 
Cc1cc(S(N)(=O)=O)c(S/C(=N/Nc2ccc([N+](=O)[O-])cc2)c2ccc3ccccc3c2)cc1Cl [Compound 15] | 4.93 | 99.40 |  |  | 
Cc1cc(S(N)(=O)=O)c(S/C(CC(C)C)=N/Nc2ccc([N+](=O)[O-])cc2)cc1Cl [Compound 5] | 5.84 | 79.95 |  |  | 
Cc1cc(S(N)(=O)=O)c(S/C(=N/Nc2ccc([N+](=O)[O-])cc2)C(C)C)cc1Cl [Compound 3] | 7.76 | 76.13 |  |  | 
Cc1cc(S(N)(=O)=O)c(S/C(=N/Nc2ccc([N+](=O)[O-])cc2)c2ccc(Cl)cc2)cc1Cl [Compound 10] | 7.79 | 90.80 |  |  | 
CC/C(=N\Nc1ccc([N+](=O)[O-])cc1)Sc1cc(Cl)c(C)cc1S(N)(=O)=O [1-trans] |  |  | 3.60 |  | 
Cc1cc(S(N)(=O)=O)c(S/C(=N/Nc2ccc([N+](=O)[O-])cc2)c2ccccc2)cc1Cl [Compound 9] | 9.28 | 96.03 |  |  | 
Cc1cc(S(N)(=O)=O)c(SC(=NNc2ccc([N+](=O)[O-])cc2)c2ccc(O)c(Br)c2)cc1Cl [Compound 14] |  | 74.88 |  | reductive debromination reaction | 
CCC(=NNc1ccc([N+](=O)[O-])cc1)Sc1cc(Cl)c(C)cc1S(N)(=O)=O [Compound 1] | 5.84 | 53.51 |  |  | 
Cc1cc(S(N)(=O)=O)c(S/C(=N/Nc2ccc([N+](=O)[O-])cc2)c2ccc([N+](=O)[O-])cc2)cc1Cl [Compound 11] | 1.50 | 98.97 |  |  | 
COc1ccc(/C(=N\Nc2ccc([N+](=O)[O-])cc2)Sc2cc(Cl)c(C)cc2S(N)(=O)=O)cc1 [Compound 13] | 2.66 | 95.33 |  |  | 
Cc1cc(S(N)(=O)=O)c(S/C(=N/Nc2ccc([N+](=O)[O-])cc2[N+](=O)[O-])C(C)C)cc1Cl [Compound 4] | 0.00 | 62.86 |  |  | did not occur

Reference: publication PMC4043666, “Mass Spectrometry Based Identification of Geometric Isomers during Metabolic Stability Study of a New Cytotoxic Sulfonamide Derivatives Supported by Quantitative Structure-Retention Relationships” (PLoS ONE, 2014)
